Assay results reported in patent US12214076B2, “Drug delivery vehicles for atherosclerosis nanomedicine” (Northwestern University, priority 2019, dated 2025).
Peptide text beside a SMILES is read from it. * marks the point of attachment. Palmitoyl = CCCCCCCCCCCCCCCC(=O)*

What was measured:
LDLR KO mice = experiment: Targeting of atherosclerosis by IV injected ApoA1 PA nanofibers (Example 3); type: in vivo, mouse
Description: Mouse model of atherosclerosis: To study atherosclerosis, the LDLR KO mouse was used. LDLR KO mice are fed a high fat “western” diet (Teklad TD.88137) starting at 4 weeks of age. This diet consists of 20% fat, 0.2% cholesterol, and 34% high sucrose. LDLR KO mice fed this diet typically develop severe hypercholesterolemia (>800 mg/dL) and hypertriglyceridemia (>300 mg/dL) after only 2 weeks. By 12 weeks on the high fat diet, atherosclerotic lesions are detected in the aortic root and aortic arch on cryosections stained with Oil Red O (Sigma). Atherosclerosis was quantified in the aortic root as a percentage of the aortic root by taking the atherosclerotic area divided by the total aortic root area. Measurements were made with ImageJ software. All protocols for the animal model and procedures in this manuscript were approved by Northwestern University's Institutional Animal Care and Use Committee.
Injection of PA nanofibers: PA nanofibers were dissolved at 2-4 mg/mL concentration in room temperature phosphate buffered saline (PBS). After 14 weeks on the high fat diet, mice received intravenous injections of PA nanofiber dissolved in PBS (dorsal penile vein in males, retro-orbital injection in females) using a 31 G hypodermic insulin needle on a 0.3 mL syringe under sterile conditions and magnification (NIKON SMZ 645 Zoom Stereomicroscope). Mice were briefly anesthetized for injection with inhaled isoflurane. Mice were monitored and allowed to recover from anesthesia in a heated oxygen chamber.
Dose and concentration study: To determine the optimum concentration for targeting efficacy and safety, LDLR KO mice fed the high fat diet for 14 weeks were injected with PA nanofiber at concentrations of 1 mg/mL, 2 mg/mL, and 4 mg/mL at 8 mg/kg in PBS. Similarly, to determine the optimum dose for targeting efficacy and safety, LDLR KO mice fed the high fat diet for 14 weeks were injected at PA nanofiber doses of 8 mg/kg, 6 mg/kg, 4 mg/kg, 3.3 mg/kg, and 1.7 mg/kg at 2 mg/mL in PBS. Safety, optimum dose, and concentration for targeting was assessed by survival of the animal and fluorescent pixel quantification in the aortic root, liver, lungs, kidneys, and spleen.
(§1) Tissue processing and imaging: Mice were sacrificed and euthanized under inhaled isoflurane anesthesia by diaphragm disruption and exsanguination. Phlebotomy was performed through direct right ventricular cardiac puncture using a 1 mL syringe and 25 G needle. Perfusion was performed through left ventricular cardiac puncture with 10 mL PBS and 10 mL 10% sucrose solution. The lungs, liver, spleen, kidney, aortic root, aortic arch, and descending aorta were harvested and stored in 10% sucrose for 20 minutes. Organs and vessels were then flash-frozen in Optimal Cutting Temperature embedding medium 4583 (Tissue-Tek®) with liquid nitrogen. Frozen specimens were stored at −80° C. and cryosectioned at […]. Confocal microscopy was performed on a Nikon AIR microscope. Two sets of images were acquired with a 10× Plan Fluor NA 0.3 objective. PAs were identified through quantification of the Alexa Fluor® 546 conjugated dye with 561 nm excitation and a 600/50 nm emission filter.
Images were acquired with spectral detection and spectrally unmixed to accurately separate green autofluorescence from the red Alexa Fluor® 546 signal. Brightfield and fluorescent microscopy were performed using a Zeiss Axio Imager.A2 microscope with AxioVision software (release 4.8.2, 06-2010). All confocal and fluorescent sections were mounted with ProGold Diamond mounting media (Sigma). Slides were stained with Oil Red O to image and quantify atherosclerosis under brightfield microscopy. The elastic laminae were identified using the green fluorescent protein (GFP) filter with an exposure time of 3500 ms under 5× magnification. Nanofibers were identified in the aortic root by presence of Alexa Fluor® 546 on the Cy3 filter under 5-10× magnification, and in the internal organs under 20× magnification. […]

[1] = Treatment study serum chemistry (toxicology analysis); type: in vivo, mouse; settings: mouse, in vivo
Description: Blood samples were collected at the end of the treatment study for toxicology analysis. Mice were euthanized three days after their 16th treatment.
as §1
Statistics: The effect of treatments and sex on atherosclerosis progression in mice was analyzed using one- or two-factor analysis of variance (ANOVA) followed by a post-hoc student's t-test. The toxicological effects of treatments were also analyzed using two-factor ANOVA and a post-hoc student's t-test. Toxicological effects of treatments on liver proteins AST, ALT, and ALP were further analyzed using ordinal logistic regression models of likelihood ratio tests, followed by a post-hoc Wald test

[2] = test system: atherosclerotic LDLR KO mice; experiment: In vivo proof of concept: PA nanofiber localization in aortic root; set-up: species or system mouse; settings: 24 h after intravenous injection, high fat diet 14 weeks, 6 mg kg-1 PA
Description: Mouse Model of Atherosclerosis and In Vivo Proof of Concept: LDLR-KO mice were fed a high fat “Western” diet (Teklad TD.88137) starting at 4 weeks of age. This diet consisted of 20% fat, 0.2% cholesterol, and 34% high sucrose. LDLR-KO mice fed this diet typically develop severe hypercholesterolemia (>800 mg/dL) and hypertriglyceridemia (>300 mg/dL) after only 2 weeks, and by 12 weeks on the high fat diet, atherosclerotic lesions are detected in the aortic root and aortic arch. After 14 weeks on the high fat diet, mice received intravenous injections of PA nanofibers dissolved in PBS (dorsal penile vein in males) under sterile conditions. Mice were briefly anesthetized for injection with inhaled isoflurane. After injection, mice were monitored and allowed to recover from anesthesia in a heated oxygen chamber. […] PA fluorescence was assessed with the HE CY3 filter (Zeiss filter #43) using excitation and emission wavelengths of 550-575 nm and 605-670 nm, respectively. Nuclear staining was performed with DAPI (4′,6-Diamidino-2-Phenylindole, Dilactate, ThermoFisher, Chicago, IL), and assessed with the DAPI filter (Zeiss filter #49) using excitation and emission wavelengths of 365-395 and 445-450 nm, respectively. Tissue autofluorescence was assessed with the green fluorescent protein filter (Zeiss filter #38) using excitation and emission wavelengths of 470-495 and 525-550 nm, respectively. […]

CCCCCCCCCCCCCCCC(=O)N[C@H](C(=O)N[C@H](C(=O)N[C@@H](C)C(=O)N[C@@H](C)C(=O)N[C@@H](CCC(=O)O)C(=O)N[C@@H](CCC(=O)O)C(=O)NCC(=O)N[C@@H](CC(=O)O)C(=O)N[C@@H](Cc1c[nH]c2ccccc12)C(=O)N[C@@H](Cc1ccccc1)C(=O)N[C@@H](CCCCN)C(=O)N[C@@H](C)C(=O)N[C@@H](Cc1ccccc1)C(=O)N[C@@H](Cc1ccc(O)cc1)C(=O)N[C@@H](CC(=O)O)C(=O)N[C@@H](CCCCN)C(=O)N[C@H](C(=O)N[C@@H](C)C(=O)N[C@@H](CCC(=O)O)C(=O)N[C@@H](CCCCN)C(=O)N[C@@H](Cc1ccccc1)C(=O)N[C@@H](CCCCN)C(=O)N[C@@H](CCC(=O)O)C(=O)N[C@@H](C)C(=O)N[C@@H](Cc1ccccc1)C(N)=O)C(C)C)C(C)C)C(C)C [ApoA1 PA] (Palmitoyl-VVAAEEGDWFKAFYDKVAEKFKEAF-NH2)
binding duration in areas of atherosclerosis (LDLR KO mice; after injection): remained localized to areas of atherosclerosis at high concentrations for two days
time post injection when fluorescent pixel analysis was not different from control non-injected mice (LDLR KO mice; aortic root): 10 to 14 days
dose dependence of localization at the aortic root (LDLR KO mice; constant concentration 2 mg/mL): Doses of 8 mg/kg and 6 mg/kg were superior to 4 mg/kg, which was superior to 1.7 mg/kg
fluorescent pixels in aortic root, 4 mg/mL vs. 2 mg/mL (LDLR KO mice; constant dose 8 mg/kg, 24 hours after injection): no significant difference
localization in male versus female LDLR KO mice (LDLR KO mice; mouse, in vivo): no statistically significant difference in localization between the sexes
localization to areas of atherosclerosis (LDLR KO mice; within 24 hours after injection, confocal, Alexa Fluor 546): localized to areas of atherosclerosis
Creatine [1]: 0 U/L
aspartate aminotransferase (AST) in the blood in comparison to PBS [1]: Neither ApoA1-LXR PAs nor ApoA1 PAs increased AST levels
localization of nanofibers to areas of atherosclerotic plaque in the aortic root [2]: localization of the nanofibers to areas of atherosclerotic plaque
